Test results published in patent publication US7713971B2, “1,2,4-triazine derivatives, preparation and use thereof in human therapy” (Pierre Fabre Medicament, priority 2005, dated 2010).

Molecular target: T1, human PPARα (Homo sapiens, UniProt Q07869)
T1 construct: expressed in transfected cells; host or cells: Cos-7 cells (ATCC, CRL-1651)
T1 sequence (Q07869 239-466 limits assumed): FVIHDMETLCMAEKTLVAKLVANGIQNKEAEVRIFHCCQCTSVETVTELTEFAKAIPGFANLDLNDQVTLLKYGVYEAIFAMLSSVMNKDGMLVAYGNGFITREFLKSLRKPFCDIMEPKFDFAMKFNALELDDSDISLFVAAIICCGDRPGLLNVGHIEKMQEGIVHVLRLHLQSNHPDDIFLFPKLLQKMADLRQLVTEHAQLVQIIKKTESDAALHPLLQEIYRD
Experiment: Reporter gene transactivation, hPPAR-GAL4 alpha
Assay type: cell-based
Conditions: transfected Cos-7 cells, Gal-4 luciferase reporter, 24 hours treatment

| SMILES | EC50 [µM] |
| --- | --- |
| CCOC(=O)C(C)(C)Oc1ccc(COc2nn(C)c(=O)n(CCCC(F)(F)F)c2=O)cc1 [Example 21, Ethyl 2-methyl-2-{4-[2-methyl-3,5-dioxo-4-(4,4,4-trifluoro-butyl)-2,3,4,5-tetrahydro-[1,2,4]triazin-6-yloxymethyl]-phenoxy}-propionate] | 3 to 10 |
| CCOC(=O)C(C)(C)Oc1cccc(CCOc2nn(C)c(=O)n(CCCC(F)(F)F)c2=O)c1 [Example 3, Ethyl 2-methyl-2-(3-{2-[2-methyl-3,5-dioxo-4-(4,4,4-trifluoro-butyl)-2,3,4,5-tetrahydro-[1,2,4]triazin-6-yloxy]-ethyl}-phenoxy)-propionate] | ~3 |
| CCOC(=O)C(C)(C)Oc1ccccc1CCNc1nn(CCCC(F)(F)F)c(=O)n(CCCC(F)(F)F)c1=O [Example 55, Ethyl 2-(2-{2-[3,5-Dioxo-2,4-bis-(4,4,4-trifluoro-butyl)-2,3,4,5-tetrahydro-[1,2,4]triazin-6-ylamino]-ethyl}-phenoxy)-2-methyl-propionate] | > 10 |
| CCCCCCCN(CCCCOc1cccc(SC(C)(C)C(=O)OCC)c1)c1nn(C)c(=O)n(C)c1=O [Example 54, Ethyl 2-(3-{4-[(2,4-Dimethyl-3,5-dioxo-2,3,4,5-tetrahydro-[1,2,4]triazin-6-yl)-heptyl-amino]-butoxy}-phenylsulfanyl)-2-methyl-propionate] | > 10 |
| CCCCn1c(=O)c(OCCc2ccccc2OC(C)(C)C(=O)OCC)nn(C)c1=O [Example 1, Ethyl 2-{2-[2-(4-butyl-2-methyl-3,5-dioxo-2,3,4,5-tetrahydro-[1,2,4]triazin-6-yloxy)-ethyl]-phenoxy}-2-methyl-propionate] | 3 to 10 |
| CCOC(=O)C(C)(C)Oc1ccc(CCCCOc2nn(CCCC(F)(F)F)c(=O)n(C)c2=O)cc1 [Example 28, Ethyl 2-methyl-2-(4-{4-[4-methyl-3,5-dioxo-2-(4,4,4-trifluoro-butyl)-2,3,4,5-tetrahydro-[1,2,4]triazin-6-yloxy]-butyl}-phenoxy)-propionate] | ~10 |
| CCOC(=O)C(C)(C)Oc1cccc(CCCOc2nn(C)c(=O)n(CCCC(F)(F)F)c2=O)c1 [Example 6, Ethyl 2-methyl-2-(3-{3-[2-methyl-3,5-dioxo-4-(4,4,4-trifluoro-butyl)-2,3,4,5-tetrahydro-[1,2,4]triazin-6-yloxy]-propyl}-phenoxy)-propionate] | ~0.3 |
| CCCCCCCn1c(=O)c(OCCc2ccc(OC(C)(C)C(=O)OCC)cc2)nn(C)c1=O [Example 26, Ethyl 2-{4-[2-(4-heptyl-2-methyl-3,5-dioxo-2,3,4,5-tetrahydro-[1,2,4]triazin-6-yloxy)-ethyl]-phenoxy}-2-methyl-propionate] | > 10 |
| CCOC(=O)C(C)(C)Oc1ccc(CCOc2nn(CCCC(F)(F)F)c(=O)n(C)c2=O)cc1 [Example 24, Ethyl 2-methyl-2-(4-{2-[4-methyl-3,5-dioxo-2-(4,4,4-trifluoro-butyl)-2,3,4,5-tetrahydro-[1,2,4]triazin-6-yloxy]-ethyl}-phenoxy)-propionate] | > 10 |
| CCCCCCCn1c(=O)c(OCc2ccc(OC(C)(C)C(=O)OCC)cc2)nn(CCCC(F)(F)F)c1=O [Example 23, Ethyl 2-{4-[4-heptyl-3,5-dioxo-2-(4,4,4-trifluoro-butyl)-2,3,4,5-tetrahydro-[1,2,4]triazin-6-yloxymethyl]-phenoxy}-2-methyl-propionate] | 1 |
| CCOC(=O)C(C)(C)Oc1cccc(CCCOc2nn(CCCC(F)(F)F)c(=O)n(C)c2=O)c1 [Example 4, Ethyl 2-methyl-2-(3-{3-[4-methyl-3,5-dioxo-2-(4,4,4-trifluoro-butyl)-2,3,4,5-tetrahydro-[1,2,4]triazin-6-yloxy]-propyl}-phenoxy)-propionate] | > 10 |

More lines, now with the values ahead:

| EC50 [µM] | SMILES |
| --- | --- |
| 1 to 3 | CCCCCCCn1c(=O)c(NCCCCc2cccc(SC(C)(C)C(=O)OCC)c2)nn(CCCC(F)(F)F)c1=O [Example 97, Ethyl 2-(3-{4-[4-heptyl-3,5-dioxo-2-(4,4,4-trifluoro-butyl)-2,3,4,5-tetrahydro-[1,2,4]triazin-6-ylamino]-butyl}-phenylsulfanyl)-2-methyl-propionate] |
| ~3 | CCCCCCCn1c(=O)c(NCCc2cccc(SC(C)(C)C(=O)OCC)c2)nn(C)c1=O [Example 61, Ethyl 2-{3-[2-(4-heptyl-2-methyl-3,5-dioxo-2,3,4,5-tetrahydro-[1,2,4]triazin-6-ylamino)-ethyl]-phenylsulfanyl}-2-methyl-propionate] |
| > 10 | CCOC(=O)C(C)(C)Sc1cccc(CCCCNc2nn(CCCC(F)(F)F)c(=O)n(C)c2=O)c1 [Example 93, Ethyl 2-methyl-2-(3-{4-[4-methyl-3,5-dioxo-2-(4,4,4-trifluoro-butyl)-2,3,4,5-tetrahydro-[1,2,4]triazin-6-ylamino]-butyl}-phenylsulfanyl)-propionate] |
| ~1 | CCOC(=O)C(C)(C)Oc1cccc(CCCNc2nn(CCCC(F)(F)F)c(=O)n(Cc3ccccc3)c2=O)c1 [Example 71, Ethyl 2-(3-{3-[4-benzyl-3,5-dioxo-2-(4,4,4-trifluoro-butyl)-2,3,4,5-tetrahydro-[1,2,4]triazin-6-ylamino]-propyl}-phenoxy)-2-methyl-propionate] |
| > 10 | CCCCCCCn1c(=O)c(NCCc2cccc(OC(C)(C)C(=O)OCC)c2)nn(CCCC(F)(F)F)c1=O [Example 60, Ethyl 2-(3-{2-[4-heptyl-3,5-dioxo-2-(4,4,4-trifluoro-butyl)-2,3,4,5-tetrahydro-[1,2,4]triazin-6-ylamino]-ethyl}-phenoxy)-2-methyl-propionate] |
| 1 to 3 | CCCCCCCn1nc(NCCCCc2cccc(SC(C)(C)C(=O)OCC)c2)c(=O)n(Cc2ccccc2)c1=O [Example 101, Ethyl 2-{3-[4-(4-benzyl-2-heptyl-3,5-dioxo-2,3,4,5-tetrahydro-[1,2,4]triazin-6-ylamino)-butyl]-phenylsulfanyl}-2-methyl-propionate] |
| ~10 | CCOC(=O)C(C)(C)Oc1ccc(CCN(CCc2ccccc2)c2nn(C)c(=O)n(C)c2=O)cc1 [Example 114, Ethyl 2-(4-{2-[(2,4-dimethyl-3,5-dioxo-2,3,4,5-tetrahydro-[1,2,4]triazin-6-yl)-phenethyl-amino]-ethyl}-phenoxy)-2-methyl-propionate] |
| > 10 | CCCCCCCn1nc(NCCCCc2cccc(SC(C)(C)C(=O)OCC)c2)c(=O)n(CCCCCCC)c1=O [Example 98, Ethyl 2-{3-[4-(2,4-diheptyl-3,5-dioxo-2,3,4,5-tetrahydro-[1,2,4]triazin-6-ylamino)-butyl]-phenylsulfanyl}-2-methyl-propionate] |
| > 10 | CCOC(=O)C(C)(C)Oc1cccc(CCNc2nn(C)c(=O)n(CCCC(F)(F)F)c2=O)c1 [Example 58, Ethyl 2-methyl-2-(3-{2-[2-methyl-3,5-dioxo-4-(4,4,4-trifluoro-butyl)-2,3,4,5-tetrahydro-[1,2,4]triazin-6-ylamino]-ethyl}-phenoxy)-propionate] |
| ~10 | CCCCCCCn1c(=O)c(N(CCCc2ccccc2)CCc2ccc(OC(C)(C)C(=O)OCC)cc2)nn(C)c1=O [Example 117, Ethyl 2-(4-{2-[(4-heptyl-2-methyl-3,5-dioxo-2,3,4,5-tetrahydro-[1,2,4]triazin-6-yl)-(3-phenyl-propyl)-amino]-ethyl}-phenoxy)-2-methyl-propionate] |
| > 10 | Cn1nc(NCCCCc2cccc(OC(C)(C)C(=O)OC(C)(C)C)c2)c(=O)n(CCCC(F)(F)F)c1=O [Example 78, Tert-butyl 2-methyl-2-(3-{4-[2-methyl-3,5-dioxo-4-(4,4,4-trifluoro-butyl)-2,3,4,5-tetrahydro-[1,2,4]triazin-6-ylamino]-butyl}-phenoxy)-propionate] |
| > 10 | CCOC(=O)C(C)(C)Oc1cccc(CCCNc2nn(CCCC(F)(F)F)c(=O)n(C)c2=O)c1 [Example 62, Ethyl 2-methyl-2-(3-{3-[4-methyl-3,5-dioxo-2-(4,4,4-trifluoro-butyl)-2,3,4,5-tetrahydro-[1,2,4]triazin-6-ylamino]-propyl}-phenoxy)-propionate] |
| > 10 | CCCCCCCn1nc(NCCc2ccc(OC(C)(C)C(=O)OCC)cc2)c(=O)n(CCCCCCC)c1=O [Example 108, Ethyl 2-{4-[2-(2,4-diheptyl-3,5-dioxo-2,3,4,5-tetrahydro-[1,2,4]triazin-6-ylamino)-ethyl]-phenoxy}-2-methyl-propionate] |
| > 10 | CCOC(=O)C(C)(C)Oc1ccc(CCNc2nn(CCCC(F)(F)F)c(=O)n(C)c2=O)cc1 [Example 102, Ethyl 2-methyl-2-(4-{2-[4-methyl-3,5-dioxo-2-(4,4,4-trifluoro-butyl)-2,3,4,5-tetrahydro-[1,2,4]triazin-6-ylamino]-ethyl}-phenoxy)-propionate] |
| ~1 | CCCCCCCn1c(=O)c(NCCc2ccc(OC(C)(C)C(=O)OCC)cc2)nn(CCCC(F)(F)F)c1=O [Example 107, Ethyl 2-(4-{2-[4-heptyl-3,5-dioxo-2-(4,4,4-trifluoro-butyl)-2,3,4,5-tetrahydro-[1,2,4]triazin-6-ylamino]-ethyl}-phenoxy)-2-methyl-propionate] |
| > 10 | CCCCCCCn1nc(NCCCCc2cccc(OC(C)(C)C(=O)OC(C)(C)C)c2)c(=O)n(CCCC(F)(F)F)c1=O [Example 83, Tert-butyl 2-(3-{4-[2-heptyl-3,5-dioxo-4-(4,4,4-trifluoro-butyl)-2,3,4,5-tetrahydro-[1,2,4]triazin-6-ylamino]-butyl}-phenoxy)-2-methyl-propionate] |
| ~10 | CCCCCCCn1c(=O)c(N(CCc2ccccc2)CCc2ccc(OC(C)(C)C(=O)OCC)cc2)nn(C)c1=O [Example 116, Ethyl 2-(4-{2-[(4-heptyl-2-methyl-3,5-dioxo-2,3,4,5-tetrahydro-[1,2,4]triazin-6-yl)-phenethyl-amino]-ethyl}-phenoxy)-2-methyl-propionate] |
